According to US20200239587A1, “SENSITIZATION OF TUMORS TO THERAPIES THROUGH ENDOGLIN ANTAGONISM” (Cedars-Sinai Medical Center, priority 2016, published 2020):
Entries after “also recorded” stand apart in the source; their conditions may differ.

Legend:
[1] = test system: SFRP1 expression in human NAF and CAF; assay: SFRP1 mRNA expression in NAF and CAF treated with TRC105; format: cell-based; details: vs IgG
From the text: See also FIG. 15. […] Immunohistochemical localization of CD105 and SFRP1 in benign or PCa tissues are found in blood vessels (v), epithelia (e), and stroma (s), n=4. Scale bar represents 100 μm. FIG. 12E) Epithelial proliferation of human CW22Rv1, in 3D co-cultures with mouse prostatic fibroblasts, were co-stained for EpCam and Ki67 for FACS analysis. […] See also FIG. 16. […] Error bars are mean+/−SD and **p<0.01, ****p<0.0001, compared to control unless otherwise indicated.
CW22Rv1, C42B, and PC3 cells from ATCC were expanded as directed. Prostatectomy specimens from Cedars-Sinai Medical Center or the Greater Los Angeles Veterans Affairs were cultured to generate NAF and CAF cells using the same method, as C57BL/6 mouse wild-type prostatic fibroblasts were grown as previously reported (Franco et al., 2011, Cancer research 71, 1272-1281; Kiskowski et al., 2011, Cancer research 68, 4709-4718). TRC105 and M1043 were provided by TRACON Pharmaceuticals, Inc. (San Diego, Calif.). […]
Total RNA was extracted using the RNeasy kit (Qiagen). […] Quantitative RT-PCR was performed with 5 replicates using the Step One Real-Time PCR system (Applied Biosystems). […] For RNA-sequencing, Ion Proton AmpliSeq Transcriptome RNA Sequencing was performed achieving an average of 3M reads. We mapped an average of 88% of the reads to the human genome with Torrent Suite version 4.4.2.

22Rv1 cells = assay: Annexin-V apoptosis by FACS after irradiation; format: cell-based, human; details: TRC105 with 4 Gy radiation vs radiation alone, 5 days
Experimental: FIG. 18A) Cell surface CD105 expression was measured in PC3, C42b, and 22Rv1 72 hours after 4 Gy irradiation treatment by FACS analysis and compared to cells not irradiated (control). FIG. 18B) Cell surface CD105 expression was measured in cell lines following a dose range of irradiation (0, 2, 4, or 6 Gy). FIG. 18C) The durability of cell surface CD105 expression in 22Rv1 was determined 0, 0.5, 4, 8, 24, 48, 72, 120, and 168 hours following 4 Gy irradiation. CD105 cell surface expression fold change was normalized to levels expressed prior to irradiation. FIG. 18D) Western blot for phosphorylated-Smad1/5 was measured in CW22Rv1 cells in the presence or absence of serum starvation and treatment with 50 ng/ml BMP4 or 1 μg/ml TRC105. β-actin expression served as the loading control. FIG. 18E) Annexin-V expression was measured in 22Rv1 cells by FACS analysis 5 days following 4 Gy irradiation in the presence and absence of TRC105. FIG. 18F) Clonogenic assay was measured 10 days following irradiation of CW22Rv1 and C42b cells in a dose range of 0 to 6 Gy in the presence of 1 μg/ml IgG or TRC105. Data are reported as a mean+/−S.D. (**p<0.01, ***p<0.001).

HPAF-II = assay: Clonogenic survival assay with radiation; format: cell-based, human; details: p53 mutant pancreatic cancer cell line
Experimental: (§1) Assays were performed on cell lines with p53 null prostate cancer cell line, FIG. 23A) PC3 and two p53 mutant pancreatic cancer cell lines, FIG. 23B) MIAPACA-2 and FIG. 23C) HPAF-II with indicated doses of radiation. Breast cancer cell lines with intact p53, FIG. 23D) MCF7 and mutant yet functional p53, FIG. 23E) MDA-MB23 were however radio-sensitized by the 1 μg/ml TRC105.

MCF7 = assay: Clonogenic survival assay with radiation; format: cell-based, human; details: breast cancer cell line with intact p53; 1 μg/ml TRC105
Experimental: as §1

MDAMB231 = assay: Clonogenic survival assay with radiation; format: cell-based, human; details: breast cancer cell line with mutant yet functional p53; 1 μg/ml TRC105
Experimental: as §1

PC3 = assay: Clonogenic survival assay with radiation; format: cell-based, human; details: p53 null prostate cancer cell line
Experimental: as §1

[2] = test system: MTCO1 of complex-IV and NDUFB8 of complex-I in 22Rv1; assay: Western blot of mitochondrial electron transport chain proteins; format: cell-based, human; details: 4Gy+TRC105 vs radiation alone, 72 hours
Experimental: Lysate was collected 72 hours post irradiation for Western blot. FIG. 25A) Blots were probed for a cocktail of mitochondrial complex proteins. Protein levels of MTCO1 of complex-IV and NDUFB8 of complex-I were normalized to ponceau. […] Within each group, the first/left column depicts 0Gy+IgG, the second column depicts 0Gy+TRC105, the third column depicts 4Gy+IgG and the last/right column depicts 4Gy+TRC105. (**p<0.01, ***p<0.001)

CW22Rv1 xenograft model = assay: Subcutaneous CW22Rv1 xenograft with radiation; format: in vivo, mice
Experimental: Tumor volumes were longitudinally measured. When tumor average volume reached […] mice were treated with IgG or TRC105 in the context of radiation (2 Gy for 5 days). Tumors were harvested 15 days after the first dose of radiation. FIG. 28A) Tumor volume fold change was normalized to the first dose of radiation (day 1, ***p<0.001). FIG. 28B) Each treatment was compared for doubling of tumor volume as a function of time as depicted in the cumulative incidence plot.
The inventors assessed CD105 dependent radio-resistance using a CW22Rv1 xenograft model. Mice engrafted with subcutaneous CW22Rv1 were given one dose of IgG or TRC105 72 hours prior to radiation and subsequently 3 times a week for the duration of radiation treatment. The irradiated IgG and irradiated TRC105 groups were given a radiation dosage of 2Gy for 5 consecutive days. Fold change in tumor volume was calculated for each group (FIG. 28A).

prostatic epithelia = assay: Cancer stem cell markers and sphere-forming units; format: cell-based; details: antagonizing endoglin

“TRC105: partially humanized monoclonal antibody that blocks BMP signaling; human-specific CD105 (endoglin) neutralizing antibody from Tracon Pharmaceuticals” was tested, and the “SFRP1 expression in NAF” value [1] was “no effect”, the “SFRP1 expression in CAF” value ([1]; p<0.0001) was “significantly down regulated” and the “apoptosis measured by Annexin-V” value (22Rv1 cells) was “significantly increased apoptosis”. For the same substance, the “radiation sensitivity, clonogenic response” value (HPAF-II) was “neither the HPAF-II nor MIAPACA-2 cell lines treated with radiation showed a change in clonogenic response”, the “radiation sensitivity, clonogenic survival” value (MCF7) was “positively sensitized to irradiation; also recorded: radio-sensitized” and the “radiation sensitivity, clonogenic survival” value (MDAMB231) was “positively sensitized to irradiation; also recorded: radio-sensitized”. For the same substance, the “radiation sensitivity, clonogenic survival” value (PC3) was “no evidence of radiation sensitization”, the “mitochondrial electron transport chain proteins MTCO1 and NDUFB8” value [2] was “down-regulation of CIV-MTCO1 and CI-NDUF88; also recorded: significantly lower” and the tumor volume (CW22Rv1 xenograft model; TRC105 alone compared to untreated) was “did not influence tumor volume”. The tumor doubling time (CW22Rv1 xenograft model; TRC105 with irradiation vs either treatment alone) was “appreciably inhibited”, the tumor volume (CW22Rv1 xenograft model; radiation (2Gy for 5 days) and TRC105, p<0.001) was “significantly lower than the other three experimental groups” and the “cancer stem cell markers (CD44, ALDH, Oct4, Sox) and sphere-forming units” value (prostatic epithelia) was “down regulated”.
